Test results reported in patent publication US6599893B2, “Cephalosporin antibiotics and prodrugs thereof” (Essential Therapeutics, Inc., priority 2000, dated 2003).
In brackets after ≈: the same amount, converted by molar mass. Read-outs that look alike come from different tables or passages of the source.

Columns and labels:
[1] = test system: Staphylococcus aureus ATCC 29213 (MSSA); assay: Broth microdilution MIC, S. aureus ATCC 29213; format: cell-based; settings: for MIC: read-out: MIC S. a. 29213
Method: (§1) Compounds were evaluated for antimicrobial activity against a panel of bacterial strains using a broth microdilution assay performed as recommended by the NCCLS (NCCLS (National Committee for Clinical Laboratory Standards). 1993. Methods for dilution antimicrobial susceptibility tests for bacteria that grow aerobically. NCCLS Document M7-A3, 1993. In: NCCLS Antimicrobial Susceptibility Testing, 3rd Ed.)
(§2) The minimum inhibitory concentration (MIC) is defined as the lowest concentration of a compound that prevents the growth of the bacteria.

[2] = test system: Enterococcus faecalis ATCC 29212; assay: Broth microdilution MIC, E. faecalis ATCC 29212; format: cell-based
Method: as §1, §2

[3] = test system: Staphylococcus aureus Smith (MSSA); assay: Broth microdilution MIC, S. aureus Smith; format: cell-based; settings: for MIC: read-out: MIC S. a. Smith
Method: as §1, §2

[4] = test system: Staphylococcus aureus 76 (MRSA, β-lactamase producing); assay: Broth microdilution MIC, S. aureus 76; format: cell-based; settings: for MIC: read-out: MIC S. a. 76
Method: as §1, §2

[5] = test system: Staphylococcus aureus COL (MRSA, non-β-lactamase producing); assay: Broth microdilution MIC, S. aureus COL; format: cell-based; settings: for MIC: read-out: MIC S. a. COL
Method: as §1, §2

[6] = test system: Enterococcus faecium ATCC 35667; assay: Broth microdilution MIC, E. faecium ATCC 35667; format: cell-based
Method: as §1, §2

[7] = Human serum binding by ultrafiltration; format: in vitro ADME; settings: pooled human serum, ultrafiltration, 10 minutes at 37° C.
Method: Binding of several representative compounds of this invention in pooled human serum was determined using ultrafiltration. Compounds were incubated in serum for 10 minutes at 37° C. in a shaking water bath. Serum ultrafiltrate was accomplished by centrifugation (Amicon Centrifree) for 20 minutes at 25° C. Compound content in the ultrafiltrate was quantified by HPLC. An ultrafilrate obtained by following the same procedure with no added compound was used as a standard.

S. aureus strain Smith = assay: Experimental infection of mice, ED50; format: in vivo, Swiss-Webster mice; settings: for ED50: Staphylococcus aureus, read-out: ED50, mg/kg (95% C.I.)
Method: Staphylococcus aureus strain Smith (ATCC 13709, penicillin-susceptible) or strain 76 (methicillin-resistant) was cultured overnight at 37° C. in brain-heart infusion broth (BHIB). The following morning, a portion of the culture was transferred to fresh BHIB and incubated for an additional 4-5 hours at 37° C. The cells were harvested by centrifugation, washed twice with PBS, and adjusted to the desired inoculum amount. The cell suspension was mixed with an equal volume of sterile 14% hog-gastric mucin (Comber K. R.; Osborne C. D.; Sutherland R.: Comparative effects of amoxicillin and ampicillin in the treatment of experimental mouse infections. Antimicrobial Agents and Chemotherapy 7(2):179-185, 1975). The inoculum was kept in an ice bath until used (preferably in less than one hour).
Male Swiss-Webster mice were challenged intraperitoneally with 0.5 mL of a bacterial suspension of S. aureus strain Smith (LD50). Test compounds were administered subcutaneously in 0.1 mL volumes immediately after inoculation and 2 hours later. […] The total dose associated with 50% survival (ED50) was determined using the probit method (Pasiello, A. P., J. M. Essigmann, and G. N. Wogan.: Rapid and accurate determination of median lethal dose (LD50) and its error with a small computer. J Toxicol. Environ. Health. 3:797-809, 1977).

[8] = Human serum binding estimated from serum effect on MIC (HSB*); format: in vitro ADME; settings: MIC against S. aureus ATCC 29213 in growth medium vs 1:1 growth medium and human serum
Description: An estimate of human serum binding (HSB*) was obtained for some compounds using the MIC values against S. aureus ATCC 29213 determined in growth medium (GM) and in a 1:1 mixture of growth medium and human serum (GM+HS):
HSB*=(MICGM+HS−MICGM)/MICGM 100%

[9] = Staphylococcus aureus ATCC 29213 (MSSA)
[10] = ATCC29212, Enterococcus faecalis ATCC 29212, read-out: MIC E. f. 29212
[11] = Staphylococcus aureus Smith (MSSA)
[12] = Staphylococcus aureus 76 (MRSA, β-lactamase producing)
[13] = Staphylococcus aureus COL (MRSA, non-β-lactamase producing)
[14] = ATCC35667, Enterococcus faecium ATCC 35667, read-out: MIC E. f. 35667
[15] = Enterococcus faecalis ATCC 29212
[16] = 50% efficacious dose, S. aureus Smith, mice challenged intraperitoneally, compound subcutaneously at 0 and 2 h, total dose, 72 h survival
[17] = Enterococcus faecium ATCC 35667

Row | Compound | MIC [1, 9] [µg/mL] | MIC [2, 10] [µg/mL] | MIC [3, 11] [µg/mL] | MIC [4, 12] [µg/mL] | MIC [5, 13] [µg/mL] | MIC [6, 14] [µg/mL] | HSB*, human serum binding calculated using serum effect on MIC [8] | also measured
1 | Nc1nc(/C(=N/O)C(=O)N[C@@H]2C(=O)N3C(C(=O)O)=C(Sc4ccncc4CO)CS[C@H]23)c(Cl)s1 [Compound 28] | 0.5 (≈ 0.921 µM) | 0.25 (≈ 0.46 µM) | 0.125 (≈ 0.23 µM) | 2 (≈ 3.68 µM) | 2 (≈ 3.68 µM) | 1 (≈ 1.84 µM) |  | HSB, human serum binding [7]: >99%
2 | Nc1nc(/C(=N/O)C(=O)N[C@@H]2C(=O)N3C(C(=O)O)=C(Sc4ccncc4CSc4cccnc4N)CS[C@H]23)c(Cl)s1 [Compound 29] |  |  |  |  |  |  |  | MIC S. a. 29213 [1, 9]: 0.125 µg/mL (≈ 0.192 µM); MIC E. f. 29212 [2, 15]: 0.125 µg/mL (≈ 0.192 µM); MIC S. a. Smith [3, 11]: 0.25 µg/mL (≈ 0.384 µM); MIC S. a. 76 [4, 12]: 2 µg/mL (≈ 3.07 µM); ED50, mg/kg (95% C.I.) (S. aureus strain Smith; [16]): >5 mg/kg; MIC S. a. COL [5, 13]: 1 µg/mL (≈ 1.54 µM); MIC E. f. 35667 [6, 17]: 0.5 µg/mL (≈ 0.768 µM)
3 | Cc1nnsc1SC1=C(C(=O)O)N2C(=O)[C@@H](NC(=O)C(=NO)c3nc(N)sc3Cl)C2SC1 (stereo partly drawn) [Compound 34, (7R)-7-[2-(2-Amino-5-chlorothiazol-4-yl)-2-hydroxyiminoacetylamino]-3-(4-methyl-[1,2,3]thiadiazol-5-ylsulfanyl)-8-oxo-5-thia-1-aza-bicyclo[4.2.0]oct-2-ene-2-carboxylic acid] | 0.125 (≈ 0.234 µM) | 0.25 (≈ 0.468 µM) | 0.125 (≈ 0.234 µM) | 2 (≈ 3.75 µM) | 2 (≈ 3.75 µM) | 2 (≈ 3.75 µM) | — (98%) | 
4 | Nc1nc(/C(=N/O)C(=O)N[C@@H]2C(=O)N3C(C(=O)O)=C(Sc4cccc5nncn45)CS[C@H]23)c(Cl)s1 [Compound 35] |  |  |  |  |  |  | — (88%) | MIC S. a. 29213 [1, 9]: 0.5 µg/mL (≈ 0.904 µM); MIC E. f. 29212 [2, 15]: 0.25 µg/mL (≈ 0.452 µM); MIC S. a. Smith [3, 11]: 0.25 µg/mL (≈ 0.452 µM); MIC S. a. 76 [4, 12]: 4 µg/mL (≈ 7.23 µM); MIC S. a. COL [5, 13]: 4 µg/mL (≈ 7.23 µM); MIC E. f. 35667 [6, 17]: 4 µg/mL (≈ 7.23 µM)
5 | Nc1nc(C(=NO)C(=O)N[C@@H]2C(=O)N3C(C(=O)O)=C(Sc4cnns4)CSC23)ns1 (stereo partly drawn) [Compound 39, (7R)-7-[2-(5-Amino-[1,2,4]thiadiazol-3-yl)-2-hydroxyimino-acetylamino]-8-oxo-3-([1,2,3]thiadiazol-5-ylsulfanyl)-5-thia-1-aza-bicyclo[4.2.0]oct-2-ene-2-carboxylic acid] | 0.125 (≈ 0.257 µM) | 1 (≈ 2.06 µM) | 0.125 (≈ 0.257 µM) | 8 (≈ 16.4 µM) | 8 (≈ 16.4 µM) | 2 (≈ 4.11 µM) | — (94%) | 
6 | Nc1nc(C(=NO)C(=O)N[C@@H]2C(=O)N3C(C(=O)O)=C(Sc4cnns4)CSC23)c(Cl)s1 (stereo partly drawn) [Compound 43, (7R)-7-[2-(2-Amino-5-chlorothiazol-4-yl)-2-hydroxyiminoacetylamino]-8-oxo-3-([1,2,3]thiadiazol-5-ylsulfanyl)-5-thia-1-aza-bicyclo[4.2.0]oct-2-ene-2-carboxylic acid] | < 0.06 | 0.125 (≈ 0.24 µM) | 0.06 (≈ 0.115 µM) | 1 (≈ 1.92 µM) | 0.5 (≈ 0.962 µM) | 0.5 (≈ 0.962 µM) |  | HSB, human serum binding [7]: 96% (−)
7 | C[C@@H](O)[C@H]1C(=O)N2C(C(=O)O)=C(SCCN=CN)C[C@H]12 [Imipenem, reference compound] | < 0.02 | 1 (≈ 3.34 µM) | 0.25 (≈ 0.835 µM) | 32 (≈ 107 µM) | 16 (≈ 53.4 µM) | 4 (≈ 13.4 µM) |  | ED50 (S. aureus strain Smith; [16]): 0.15 mg/kg
8 | CN[C@H](CC(C)C)C(=O)N[C@H]1C(=O)N[C@@H](CC(N)=O)C(=O)N[C@H]2C(=O)N[C@H]3C(=O)N[C@H](C(=O)N[C@H](C(=O)O)c4cc(O)cc(O)c4-c4cc3ccc4O)[C@H](O)c3ccc(c(Cl)c3)Oc3cc2cc(c3O[C@@H]2O[C@H](CO)[C@@H](O)[C@H](O)[C@H]2O[C@H]2C[C@](C)(N)[C@H](O)[C@H](C)O2)Oc2ccc(cc2Cl)[C@H]1O [Vancomycin, reference compound] |  |  |  |  |  |  |  | MIC ([1]; Staphylococcus aureus): 0.5 µg/mL (≈ 0.345 µM); MIC ([2]; Enterococcus faecalis, ATCC29212, read-out: MIC E. f. 29212): 1 µg/mL (≈ 0.69 µM); MIC ([3]; Staphylococcus aureus, MSSA): 0.5 µg/mL (≈ 0.345 µM); MIC ([4]; Staphylococcus aureus, MRSA): 0.5 µg/mL (≈ 0.345 µM); ED50 (S. aureus strain Smith): 2.1 mg/kg; MIC ([5]; Staphylococcus aureus, MRSA): 1 µg/mL (≈ 0.69 µM); MIC ([6]; Enterococcus faecium, ATCC35667, read-out: MIC E. f. 35667): 0.25 µg/mL (≈ 0.173 µM)
